{"source": "patent US20110294794A1", "about": "“TREATMENT OF PROTEINOPATHIES USING A FARNESYL TRANSFERASE INHIBITOR” (Link Medicine Corporation, priority 2008, published 2011)", "key": {"TAU441 transgenic mice": {"test_system": "TAU441 transgenic mice", "test": "Porsolt forced swim task in TAU441 transgenic mice", "format": "in vivo, mouse", "description": "Tests relevant to depression-like behaviors in rodents are primarily stress-induced reductions in avoidance or escape, termed behavioral despair. One of the most widely used animal tests for depression is the Porsolt forced swim task (Porsolt et al., Arch. Int. Pharmacodyn. Ther. 229(2):327-36, 1977; Porsolt et al., Eur. J. Pharmacol. 47(4):379-91, 1978). This study was designed to evaluate the effects of treatment with LNK-754 on behavior of TAU441 transgenic mice. At start of the treatment, the animals were 5 months old. Untreated non-transgenic animals of the same age were tested and sacrificed serving as the baseline group. Mice received vehicle or LNK-754-TS at a dose of 0.09 mg per kg, 7 days a week for 90 days. In the last week of the treatment period and before sacrifice, mice were evaluated using the Porsolt forced swim task (FIG. 10B)."}, "TAU": {"test_system": "TAU", "test": "TAU441 transgenic mice, TAU immunoreactivity (AT180, HT7) in the amygdala", "format": "in vivo, mouse", "conditions": "0.09 mg/kg once every 24 hours, three months", "description": "Animals and treatments: Male and female human WT alpha-synuclein over-expressing transgenic mice^32 at 6 months of age were given vehicle (10% beta-cyclodextrin) or LNK-754-TS (0.09, 0.9 and 9 mg/kg) per oral gavage twice daily for 3 months or animals at 7 months of age were given vehicle (2.5% beta-cyclodextrin) or LNK-754-TS (2 mg/kg) once every three days for 3 months. Male and female TAU transgenic mice expressing TAU441 bearing the missense mutations V337M^50 and R406W under the control of the murine Thy-1 promoter with a CB6xC57BL/6 background were 5 months old at the time when the oral treatment for three months with LNK-754-TS (0.9 and 0.09 mg/kg) as well as vehicle (2.5% beta-cyclodextrin) was started. Female human APP/PS1 (APP (London V7171)/PS1(A246E)) over-expressing transgenic mice were treated with LNK-754-TS (0.9 mg/kg) or vehicle (2.5% beta-cyclodextrin) for 2 months or 12 days.\nImmunohistochemistry and quantification of stained cells: For evaluation of α-synuclein immunoreactivity (IR), 5 sagittal cryo-cut sections (10 μm slice thickness) from five different layers were used for counting of IR cells in the cortex and hippocampus. […] IR positive cells were quantified using specialized image analysis software (Image Pro Plus, version 4.5.1.29). […] Images were evaluated with ImageProPlus (version 6.2) image analysis software. For APP/PS1 transgenic animals sagittal hemisections (40 μm) were collected and processed for Aβ immunohistochemistry using an 6E10 antibody, Thioflavin-S staining Primary antibodies were detected by the ABC method. […]\nThis study was designed to evaluate the effects of a treatment with LNK-754-TS dosed at 0.09 mg per kg on behavior, TAU and TAU-pT231 levels, and brain morphology of TAU441 Tg mice. Histological evaluations were performed to quantitatively evaluate TAU pathology. TAU depositions were determined using the monoclonal TAU-antibodies AT180 and HT7. […]"}, "[1]": {"conditions": "0.09 mg/kg once every 24 hr, 90 days"}}, "note": "Entries after “also recorded” stand apart in the source; their conditions may differ."}
{"smiles": "C#Cc1cccc(-c2cc(=O)n(C)c3ccc([C@](O)(c4ccc(Cl)cc4)c4cncn4C)cc23)c1", "note": "[LNK-754-TS, (R)-6-[(4-chlorophenyl)-hydroxyl-(1-methyl-1-H-imidazol-5-yl)-methyl]-4-(3-ethynylphenyl)-1-methyl-2-(1H)-quinonlinone (2S,3S)-dihydroxybutanedioate]", "values": [{"measurement": "depressed phenotype", "setting": "TAU441 transgenic mice; 0.09 mg/kg once every 24 hours", "result": "significantly ameliorated"}, {"measurement": "floating behavior vs. vehicle", "setting": "TAU441 transgenic mice; [1]", "result": "significantly less; also recorded: decreasing; also recorded: decreased"}, {"measurement": "forced swim behavior compared with non-transgenic mice", "setting": "TAU441 transgenic mice; [1]", "result": "behaved similar to non-transgenic mice; also recorded: behaved similarly to non-tg mice; also recorded: levels equivalent to that seen in non-transgenic mice"}, {"measurement": "struggling behavior vs. vehicle", "setting": "TAU441 transgenic mice; [1]", "result": "higher percentage; also recorded: increasing; also recorded: significantly increased"}, {"measurement": "number of AT180 immunoreactive (affected) cells in the amygdala", "setting": "TAU", "result": "comparable to those of baseline animals"}, {"measurement": "phosphorylated Tau (AT180) immunoreactivity in the amygdala vs. vehicle", "setting": "TAU", "result": "significantly decreased; also recorded: significant reduction; also recorded: significantly reduced"}, {"measurement": "total Tau (HT7) immunoreactivity in the amygdala vs. vehicle", "setting": "TAU", "result": "not significantly reduced; also recorded: did not change"}]}
